{
  "source": "patent US20030215817A1",
  "about": "“Modulation of gene expression in formation of fatty atherosclerotic lesions” (priority 2003, published 2003)",
  "key": {"[1]": {"system": "REC1_8 (MspI CCCG 243) mRNA", "assay": "quantified RT-PCR, Rec1_8", "type": "in vivo, rabbit", "conditions": "for Relative Abundance Rec1_8, 20 pg F: hypercholesterolemic plus lercanidipine racemate, eight weeks, H2 (normocholesterolemic)=1.0", "procedure": "Nineteen of the isolated DST clones were further validated using RT-PCR analyses; the data are presented in FIGS. 6-24 and in Tables 5-23, below. For each DST examined, the optimal annealing temperature and reagent conditions were determined for the corresponding set of primers (see Table 25) based on results from a preliminary experiment. In eight separate reactions, each set of primers was assayed to find the optimal conditions by adjusting the following four parameters: primer concentration, dNTP concentration, MgCl2 concentration, and number of Taq polymerase units. Once optimal conditions were determined, each DST was run in duplicate multiple simultaneous reactions which usually included at least four dilutions of template (cDNA library), plus control reactions lacking template, and six sequential data points for numbers of cycles.\nReactions were performed using “Hot Start” PCR with the Clontech TaqStart antibody system (Cat. #5400-1). Each reaction contained 1 ml of the cDNA library dilution as template, determined amounts of AmpliTaq DNA polymerase (cat. #N808-0156), MgCl2, dNTPs (GibcoBRL cat. #10297-018), primer, and Clontech TaqStart Antibody in a 20 ml final reaction volume using 10×Taq buffer II (without MgCl2). Typically, a master mix containing all components except the template was prepared and aliquoted. Various templates were then added to these master mix samples and 20 ml volumes were subsequently dispensed into individual reaction tubes. At various times during the PCR run, tubes were removed sequentially on a predetermined schedule in order to quantitate expression of the target DST over a “window” of cycle times. After amplification, the samples were quantified via fluorimetry.\nPCR was performed at annealing temperatures that were five degrees above the average melting temperature of each primer pair. For primers greater than 10 bases (in a 0.05M salt solution), melting temperature was calculated using the following formula: Tm=59.9+41[% GC]−[675/Primer Length], where %GC is the decimal value. Following determination of the average melting temperature of the primer pair, the annealing temperature was determined by adding five degrees to the average melting temperature. PCR was performed using the following program: 1) 95 degrees Celsius, 3 minutes; 2) 95 degrees Celsius, 30 seconds; 3) TM+5 degrees Celsius, 30 seconds; 4) 72 degrees Celsius, for a time dependent on target length at 16 bp/second; 5) repeat steps 2-4 33 more cycles; 6) 72 degrees Celsius, 3 minutes; 7) 14 degrees Celsius, forever.\nFollowing temperature cycling, 2 ml of the PCR reaction was added to 140 ml of a 1:280 dilution of PicoGreen (Molecular Probes cat. #P-11495 (10×100 ml)) in TE pH 7.5 in a 96-well Costar UV microtiter plate (Fisher cat. #07-200623). The samples were mixed gently for 1.5 minutes and allowed to equilibrate at room temperature in the dark for 15 minutes. The concentration of the PCR products was quantified by fluorimetry using a PerSeptive Biosystems CytoFluor series 4000 multi-well plate reader.\nBackground fluorescence was determined by using duplicate control samples that were cycled with all reaction components except the template. The mean value from these duplicate background control samples was subtracted from the corresponding experimental values prior to analyzing results. The sensitivity of the PicoGreen dsDNA assay is reported to be 250 pg/ml (50 pg dsDNA in a […] assay volume) using a fluorescence microplate reader such as was used in these measurements. […]"}, "[2]": {"system": "Rec1_6 (MspI ATCC 176) mRNA", "assay": "quantified RT-PCR, Rec1_6", "type": "in vivo, rabbit", "conditions": "for Relative Abundance Rec1_6, 20 pg F: hypercholesterolemic plus lercanidipine racemate, eight weeks, H2 (normocholesterolemic)=1.0", "procedure": "Nineteen of the isolated DST clones were further validated using RT-PCR analyses; the data are presented in FIGS. 6-24 and in Tables 5-23, below. For each DST examined, the optimal annealing temperature and reagent conditions were determined for the corresponding set of primers (see Table 25) based on results from a preliminary experiment. In eight separate reactions, each set of primers was assayed to find the optimal conditions by adjusting the following four parameters: primer concentration, dNTP concentration, MgCl2 concentration, and number of Taq polymerase units. Once optimal conditions were determined, each DST was run in duplicate multiple simultaneous reactions which usually included at least four dilutions of template (cDNA library), plus control reactions lacking template, and six sequential data points for numbers of cycles. Reactions were performed using “Hot Start” PCR with the Clontech TaqStart antibody system (Cat. #5400-1). Each reaction contained 1 ml of the cDNA library dilution as template, determined amounts of AmpliTaq DNA polymerase (cat. #N808-0156), MgCl2, dNTPs (GibcoBRL cat. #10297-018), primer, and Clontech TaqStart Antibody in a 20 ml final reaction volume using 10×Taq buffer II (without MgCl2). Typically, a master mix containing all components except the template was prepared and aliquoted. Various templates were then added to these master mix samples and 20 ml volumes were subsequently dispensed into individual reaction tubes. At various times during the PCR run, tubes were removed sequentially on a predetermined schedule in order to quantitate expression of the target DST over a “window” of cycle times. After amplification, the samples were quantified via fluorimetry. PCR was performed at annealing temperatures that were five degrees above the average melting temperature of each primer pair. For primers greater than 10 bases (in a 0.05M salt solution), melting temperature was calculated using the following formula: Tm=59.9+41[% GC]−[675/Primer Length], where %GC is the decimal value. Following determination of the average melting temperature of the primer pair, the annealing temperature was determined by adding five degrees to the average melting temperature. PCR was performed using the following program: 1) 95 degrees Celsius, 3 minutes; 2) 95 degrees Celsius, 30 seconds; 3) TM+5 degrees Celsius, 30 seconds; 4) 72 degrees Celsius, for a time dependent on target length at 16 bp/second; 5) repeat steps 2-4 33 more cycles; 6) 72 degrees Celsius, 3 minutes; 7) 14 degrees Celsius, forever. Following temperature cycling, 2 ml of the PCR reaction was added to 140 ml of a 1:280 dilution of PicoGreen (Molecular Probes cat. #P-11495 (10×100 ml)) in TE pH 7.5 in a 96-well Costar UV microtiter plate (Fisher cat. #07-200623). The samples were mixed gently for 1.5 minutes and allowed to equilibrate at room temperature in the dark for 15 minutes. The concentration of the PCR products was quantified by fluorimetry using a PerSeptive Biosystems CytoFluor series 4000 multi-well plate reader. Background fluorescence was determined by using duplicate control samples that were cycled with all reaction components except the template. The mean value from these duplicate background control samples was subtracted from the corresponding experimental values prior to analyzing results. The sensitivity of the PicoGreen dsDNA assay is reported to be 250 pg/ml (50 pg dsDNA in a […] assay volume) using a fluorescence microplate reader such as was used in these measurements. […]"}, "[3]": {"conditions": "hypercholesterolemic animals receiving lercanidipine racemate"}},
  "note": "Counter-ions that a name gives are not always drawn.",
  "data": [
    {"compound": "COC(=O)C1=C(C)NC(C)=C(C(=O)OC(C)(C)CN(C)CCC(c2ccccc2)c2ccccc2)C1c1cccc([N+](=O)[O-])c1", "note": "(racemic) [lercanidipine, lercanidipine hydrochloride]", "values": [
      {"measurement": "Relative Abundance Rec1_8, 20 pg F", "setting": "[1]; cycle 26", "result": 4.6},
      {"measurement": "Relative Abundance Rec1_8, 20 pg F", "setting": "[1]; cycle 28", "result": 2.2},
      {"measurement": "Relative Abundance Rec1_8, 20 pg F", "setting": "[1]; cycle 30", "result": 3.5},
      {"measurement": "Relative Abundance Rec1_8, 20 pg F", "setting": "[1]; cycle 32", "result": 4.8},
      {"measurement": "Relative Abundance Rec1_8, 20 pg F", "setting": "[1]; cycle 34", "result": 2.1},
      {"measurement": "Relative Abundance Rec1_8, 20 pg F", "setting": "[1]; cycle 36", "result": 2.1},
      {"measurement": "expression of Rec1_8 at 8 weeks (RT-PCR study), in words", "setting": "[1]; [3]", "result": "elevated"},
      {"measurement": "Relative Abundance Rec1_6, 20 pg F", "setting": "[2]; cycle 24", "result": 3.1},
      {"measurement": "Relative Abundance Rec1_6, 20 pg F", "setting": "[2]; cycle 26", "result": 2.2},
      {"measurement": "Relative Abundance Rec1_6, 20 pg F", "setting": "[2]; cycle 28", "result": 2.1},
      {"measurement": "Relative Abundance Rec1_6, 20 pg F", "setting": "[2]; cycle 30", "result": 1.7},
      {"measurement": "Relative Abundance Rec1_6, 20 pg F", "setting": "[2]; cycle 32", "result": 1.4},
      {"measurement": "Relative Abundance Rec1_6, 20 pg F", "setting": "[2]; cycle 34", "result": 1.5},
      {"measurement": "expression of Rec1_6 at 8 weeks (RT-PCR study), in words", "setting": "[2]; [3]", "result": "somewhat more elevated"}
    ]}
  ]
}
